# In patent US9409905B2, “Antibacterial compounds and methods for use” (PTC THERAPEUTICS, INC., priority 2011, dated 2016):
# How the values were obtained:
# [1] = tested on: Escherichia coli (E. coli) BAS849; test: Antibacterial activity, microbroth dilution MIC (Table 1); format: cell-based; details: microbroth dilution, super sensitive Gram-negative E. coli BAS849, read-out: MIC, BAS849
# How it was run: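 Microbroth dilution was used. MIC, in μg/mL, is the lowest drug concentration preventing macroscopically visible growth under the test conditions.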
# [2] = tested on: Staphylococcus aureus (S. aureus) 29213; test: as above; format: cell-based; details: microbroth dilution, Gram-positive S. aureus 29213, read-out: MIC, 29213
# How it was run: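 Potency is reported as minimum inhibitory concentration in μg/mL, determined by broth microdilution as the lowest level of compound that stops growth visible to the eye.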
# E. coli 25922 = test: as above; format: cell-based, Escherichia coli; details: Escherichia coli; microbroth dilution; control Gram-negative E. coli 25922 strain; read-out: MIC, 25922
# How it was run: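 In a microbroth dilution test, the minimum inhibitory concentration was defined as the lowest compound level preventing growth seen by eye, and was given in μg/mL.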
# E. coli LZ3111 = test: Antibacterial activity, MIC, quinolone resistant strain (Table 2); format: cell-based; details: Escherichia coli, LZ3111, read-out: MIC LZ3111
# How it was run: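 MIC values (μg/mL) came from a microbroth dilution assay, scored as the lowest drug concentration at which no growth was visible by eye.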
# [3] = tested on: Acinetobacter baumannii (A. baumannii) BAA747; test: Antibacterial activity, MIC (Table 4); format: cell-based; details: A. baumannii BAA747, read-out: MIC, BAA747
# Description: (§1) The antibacterial activity from a microbroth dilution method may be presented as the minimum inhibitory concentration (MIC in μg/mL). The MIC value is the lowest concentration of drug which prevents macroscopically visible growth under test conditions.
# (§2) Antibacterial activity of test compounds against the Gram-negative Acinetobacter baumannii (A. baumannii) BAA747 and Klebsiella pneumoniae (K. pneumoniae) 35657 bacterium and the resistant A. baumannii MXX2240 and K. pneumoniae MXX1232 strains are shown in Table 4. The MMX strains are multi-drug resistant clinical isolates.
# [4] = tested on: Klebsiella pneumoniae (K. pneumoniae) 35657; test: Antibacterial activity, MIC (Table 4); format: cell-based; details: K. pneumoniae 35657, read-out: MIC, 35657
# Description: as §1, §2
# A. baumannii MXX2240 = test: Antibacterial activity, MIC, resistant strain (Table 4); format: cell-based; details: Acinetobacter baumannii, MXX2240; resistant A. baumannii MMX2240, multi-drug resistant clinical isolate; read-out: MIC, MMX2240
# Description: as §1, §2
# K. pneumoniae MXX1232 = test: as above; format: cell-based; details: Klebsiella pneumoniae, MXX1232; resistant K. pneumoniae MMX1232, multi-drug resistant clinical isolate; read-out: MIC, MMX1232
# Description: as §1, §2
# [5] = tested on: Pseudomonas aeruginosa (P. aeruginosa) 27853; test: Antibacterial activity, MIC (Table 5); format: cell-based; details: P. aeruginosa 27853, read-out: MIC, 27853
# Description: as §1
# Antibacterial activity of test compounds against the Gram-negative bacterium Pseudomonas aeruginosa (P. aeruginosa) 27853 is shown in Table 5.
SMILES,MIC [1] [µg/mL],MIC [2] [µg/mL],MIC (E. coli 25922) [µg/mL],MIC (E. coli LZ3111) [µg/mL],MIC [3] [µg/mL],MIC [4] [µg/mL],MIC (A. baumannii MXX2240) [µg/mL],MIC (K. pneumoniae MXX1232) [µg/mL],MIC [5] [µg/mL]
"CCc1cc(C(=O)O)c(=O)[nH]c1-c1ccc2c(c1)cc(CN(C)Cc1ccccc1)n2C [Cpd 121, 6-(2-((benzyl(methyl)amino)methyl)-1-methyl-1H-indol-5-yl)-5-ethyl-2-oxo-1,2-dihydropyridine-3-carboxylic acid]",< 1,3.5 to 12.5,1 to 3.5,12.5 to 150,1 to 3.5,3.5 to 12.5,12.5 to 150,12.5 to 150,12.5 to 150
"CCc1cc(C(=O)O)c(=O)[nH]c1-c1ccc2c(c1)cc1n2CCC1N1CCOCC1 (stereo not drawn) [Cpd 155, 5-ethyl-6-(1-morpholino-2,3-dihydro-1H-pyrrolo[1,2-a]indol-7-yl)-2-oxo-1,2-dihydropyridine-3-carboxylic acid]",< 1,12.5 to 150,3.5 to 12.5,12.5 to 150,12.5 to 150,3.5 to 12.5,–,–,12.5 to 150
"CCc1cc(C(=O)O)c(=O)[nH]c1-c1ccc2c(c1)cc(CCN1CCOCC1)n2C [Cpd 162, 5-ethyl-6-(1-methyl-2-(2-morpholinoethyl)-1H-indol-5-yl)-2-oxo-1,2-dihydropyridine-3-carboxylic acid]",< 1,12.5 to 150,1 to 3.5,12.5 to 150,3.5 to 12.5,1 to 3.5,–,–,12.5 to 150
"CCc1c(-c2ccc3c(c2)cc(CN2C[C@@H]4[C@H](C2)[C@H]4NC)n3C)[nH]c(=O)c(C(=O)O)c1O [Cpd 208, 5-ethyl-4-hydroxy-6-(1-methyl-2-(((1R,5S,6s)-6-(methylamino)-3-azabicyclo[3.1.0]hexan-3-yl)methyl)-1H-indol-5-yl)-2-oxo-1,2-dihydropyridine-3-carboxylic acid]",< 1,3.5 to 12.5,< 1,3.5 to 12.5,–,–,12.5 to 150,12.5 to 150,–
"CCc1c(-c2ccc3c(c2)cc(CNCc2ccccc2)n3C)[nH]c(=O)c(C(=O)O)c1O.Cl [Cpd 214, 6-(2-((benzylamino)methyl)-1-methyl-1H-indol-5-yl)-5-ethyl-4-hydroxy-2-oxo-1,2-dihydropyridine-3-carboxylic acid hydrochloride]",< 1,1 to 3.5,< 1,12.5 to 150,–,12.5 to 150,–,12.5 to 150,–
"CCc1c(-c2ccc3c(c2)cc(CNCc2cccnc2)n3C)[nH]c(=O)c(C(=O)O)c1O.Cl [Cpd 220, 5-ethyl-4-hydroxy-6-(1-methyl-2-((pyridin-3-ylmethylamino)methyl)-1H-indol-5-yl)-2-oxo-1,2-dihydropyridine-3-carboxylic acid hydrochloride]",< 1,1 to 3.5,< 1,12.5 to 150,–,3.5 to 12.5,–,12.5 to 150,–
"CCc1c(-c2ccc3c(c2)cc(CNCc2ccncc2)n3C)[nH]c(=O)c(C(=O)O)c1O.Cl [Cpd 221, 5-ethyl-4-hydroxy-6-(1-methyl-2-((pyridin-4-ylmethylamino)methyl)-1H-indol-5-yl)-2-oxo-1,2-dihydropyridine-3-carboxylic acid hydrochloride]",< 1,1 to 3.5,1 to 3.5,12.5 to 150,–,1 to 3.5,–,12.5 to 150,–
"CCc1c(-c2ccc3c(c2)cc(CN2CCC(O)CC2)n3C)[nH]c(=O)c(C(=O)O)c1O [Cpd 254, 5-ethyl-4-hydroxy-6-(2-((4-hydroxypiperidin-1-yl)methyl)-1-methyl-1H-indol-5-yl)-2-oxo-1,2-dihydropyridine-3-carboxylic acid]",< 1,3.5 to 12.5,1 to 3.5,12.5 to 150,–,3.5 to 12.5,–,12.5 to 150,–
"CCc1c(-c2ccc3c(c2)cc(C2CCNC2)n3C)[nH]c(=O)c(C(=O)O)c1O (stereo not drawn) [Cpd 306, 5-ethyl-4-hydroxy-6-(1-methyl-2-(pyrrolidin-3-yl)-1H-indol-5-yl)-2-oxo-1,2-dihydropyridine-3-carboxylic acid]",1 to 3.5,12.5 to 150,3.5 to 12.5,3.5 to 12.5,12.5 to 150,3.5 to 12.5,–,–,12.5 to 150
